Data taken from patent US10723695B2, “Microbiocidal phenylamidine derivatives” (SYNGENTA PARTICIPATIONS AG, priority 2015, dated 2020).

Assays:
Assay type in all cases: in vivo
[1] = test system: Blumeria graminis f. sp. tritici (Erysiphe graminis f. sp. tritici); assay: Blumeria graminis f. sp. tritici / wheat / leaf disc preventative (powdery mildew on wheat); settings: foliar, wheat leaf segments cv. Kanzler, compared to untreated control leaf disks, read-out: disease control
Source text: Blumeria graminis f. sp. tritici (Erysiphe graminis f. sp. tritici)/Wheat/Leaf Disc Preventative (Powdery Mildew on Wheat) Wheat leaf segments cv. Kanzler were placed on agar in a multiwell plate (24-well format) and sprayed with the formulated test compound diluted in water. The leaf disks were inoculated by shaking powdery mildew infected plants above the test plates 1 day after application.

[2] = test system: Puccinia recondita f. sp. tritici; assay: Puccinia recondita f. sp. tritici / wheat / leaf disc curative (brown rust); settings: foliar, 24 h, wheat leaf segments cv. Kanzler, curative (applied 1 day after inoculation), compared to untreated control leaf disks, read-out: disease control
Description: Puccinia recondita f. sp. tritici/Wheat/Leaf Disc Curative (Brown Rust) Wheat leaf segments cv. Kanzler are placed on agar in multiwell plates (24-well format). The leaf segments are inoculated with a spore suspension of the fungus. Plates were stored in darkness at 19° C. and 75% rh. The formulated test compound diluted in water was applied 1 day after inoculation.

Phakopsora pachyrhizi = Phakopsora pachyrhizi / soybean / leaf disk preventative (soybean rust); settings: foliar, soybean leaf disks, compared to untreated control leaf disks, read-out: disease control
Description: Phakopsora pachyrhizi/Soybean/Leaf Disk Preventative (Soybean Rust) Four-week old soybean plants are sprayed in a spray chamber with the formulated test compound diluted in water. Leaf disks are cut from treated plants and placed on agar into 24-well plates one day after application. Leaf disks are inoculated by spraying them with a spore suspension on their lower leaf surface. After an incubation period in a climate cabinet of 24-36 hours in darkness at 20° C. and 75% rh, the leaf disks are then kept at 20° C. with 12 h light/day and 75% rh. The percentage leaf disk area covered by disease is assessed when an appropriate level of disease appears on untreated check plants (12-14 days after application).

[3] = test system: Puccinia recondita f. sp. tritici; assay: Puccinia recondita f. sp. tritici / wheat / leaf disc preventative (brown rust); settings: foliar, wheat leaf segments cv. Kanzler, compared to untreated control leaf disks, read-out: disease control
Description: Puccinia recondita f. sp. tritici/Wheat/Leaf Disc Preventative (Brown Rust) Wheat leaf segments cv. Kanzler were placed on agar in multiwell plates (24-well format) and sprayed with the formulated test compound diluted in water. The leaf disks were inoculated with a spore suspension of the fungus 1 day after application. The inoculated leaf segments were incubated at 19° C. and 75% rh under a light regime of 12 h light/12 h darkness in a climate cabinet and the activity of a compound was assessed as percent disease control compared to untreated when an appropriate level of disease damage appears in untreated check leaf segments (7-9 days after application).

SMILES | pest or weed control at 200 ppm [1] [%] | pest or weed control at 200 ppm [2] [%] | pest or weed control at 200 ppm (Phakopsora pachyrhizi) [%] | pest or weed control at 200 ppm [3] [%]
CCN(C)/C=N/c1cc(OC)c(C(O)(c2ccccc2)C(F)F)cc1C (stereo not drawn) [Compound E1.005] | ≥ 80 | ≥ 80 | ≥ 80 | ≥ 80
CCN(C)/C=N/c1cc(OC)c(C(C)(O)c2ccccc2)cc1C (stereo not drawn) [Compound E1.007, N-ethyl-N′-[4-(1-hydroxy-1-phenyl-ethyl)-5-methoxy-2-methyl-phenyl]-N-methyl-formamidine] | ≥ 80 | ≥ 80 | ≥ 80 | ≥ 80
COc1cc(/N=C/N(C)C2CC2)c(C)cc1C(O)(c1ccccc1)C(F)(F)F (stereo not drawn) [Compound E1.008] | – | ≥ 80 | – | ≥ 80
CCN(C)/C=N/c1cc(OC)c(C(O)(c2cc(Cl)cc(Cl)c2)C(F)(F)F)cc1C (stereo not drawn) [Compound E1.013] | ≥ 80 | ≥ 80 | – | ≥ 80
CCN(C)/C=N/c1cc(OC)c([C@](O)(c2ccccc2)C(F)(F)F)cc1C [Compound E1.014] | ≥ 80 | ≥ 80 | ≥ 80 | ≥ 80
CCN(C)/C=N/c1cc(OC)c(C(O)(c2ccc(SC(F)F)cc2)C(F)(F)F)cc1C (stereo not drawn) [Compound E1.038] | ≥ 80 | ≥ 80 | – | –
CCN(C)/C=N/c1cc(OC)c(C(O)(c2cccc(SC)c2)C(F)(F)F)cc1C (stereo not drawn) [Compound E1.042] | ≥ 80 | ≥ 80 | – | –
COc1cc(/N=C/N(C)C(C)C)c(C)cc1C(O)(C1CCCC1)C(F)(F)F (stereo not drawn) [Compound E1.060] | ≥ 80 | ≥ 80 | – | ≥ 80
CCN(C)/C=N/c1cc(OC)c(C(O)(C2=CCCC2)C(F)(F)F)cc1C (stereo not drawn) [Compound E1.079] | ≥ 80 | ≥ 80 | – | ≥ 80
CCN(C)/C=N/c1cc(OC)c(C(O)(C2=CCCCC2)C(F)(F)F)cc1C (stereo not drawn) [Compound E1.080] | ≥ 80 | ≥ 80 | – | ≥ 80
CCN(C)/C=N/c1cc(OC)c(C(O)(Cc2ccc(F)cc2)C(F)(F)F)cc1C (stereo not drawn) [Compound E1.091] | ≥ 80 | ≥ 80 | ≥ 80 | –
CCN(C)/C=N/c1cc(OC)c(C(O)(Cn2cc3ccccc3n2)C(F)(F)F)cc1C (stereo not drawn) [Compound E1.092] | ≥ 80 | ≥ 80 | – | ≥ 80
CCN(C)/C=N/c1cc(OC)c(C(O)(Cn2nc(C)c(Cl)c2C)C(F)(F)F)cc1C (stereo not drawn) [Compound E1.096] | – | – | ≥ 80 | –
CCN(C)/C=N/c1cc(OC)c(C(O)(Cn2cncn2)C(F)(F)F)cc1C (stereo not drawn) [Compound E1.098] | ≥ 80 | ≥ 80 | – | ≥ 80
CCN(C)/C=N/c1cc(OC)c(C(O)(Cc2cccc(F)n2)C(F)(F)F)cc1C (stereo not drawn) [Compound E1.102] | ≥ 80 | ≥ 80 | ≥ 80 | –
CCN(C)/C=N/c1cc(OC)c(C(O)(c2cnn(-c3ccccc3)c2)C(F)(F)F)cc1C (stereo not drawn) [Compound E1.109] | ≥ 80 | ≥ 80 | – | ≥ 80
CCN(C)/C=N/c1cc(OC)c(C(O)(c2cnn(C(C)C)c2)C(F)(F)F)cc1C (stereo not drawn) [Compound E1.110] | – | ≥ 80 | – | ≥ 80
CCN(C)/C=N/c1cc(OC)c(C(O)(c2cnn(CC)c2)C(F)(F)F)cc1C (stereo not drawn) [Compound E1.111] | – | ≥ 80 | ≥ 80 | ≥ 80
CCCCC(O)(c1cc(C)c(/N=C/N(C)CC)cc1SC)C(F)(F)F (stereo not drawn) [Compound E1.114] | ≥ 80 | ≥ 80 | ≥ 80 | –
